Data on eight molecules can be found in patent US9351951B2, “Prevention of proteomic and genomic damage by dicarbonyl substrates of Glo 1” (University of Warnick, priority 2010, dated 2016).

What is called viability is a read-out of living cells in per cent, often relative to untreated cells.

The test system of data set [1] is Glo1. Kind of data set: Glo1 mRNA by real-time RT-PCR in cultured cells. Type of data set: cell-based, human. The settings on record: for induction of Glo1 expression: known nrf2 activators, data not shown. The method, then: (§1) Cell Culture Human hepatoma HepG2 cells and human BJ fibroblasts were cultured in Eagle's Minimum Essential Medium (MEM) medium with 10% foetal calf serum (FCS) and 2 mM glutamine under an atmosphere of 5% CO2 in air, 100% humidity and 37° C. Where sulforaphane was used, the R-stereoisomer was used. R-Sulforaphane (SFN) and allyl isothiocyanate (AITC) were purchased from Sigma-Aldrich (Poole, Dorset, UK).
Real-Time PCR Total RNA was extracted from cultured cells which were treated with SFN, AITC using RNeasy Mini Kit (QIAGEN). cDNAs were synthesized with oligo (dT)18 primer and BioScript reverse transcriptase (BIOLINE). Human GLO1 and ACTB (β-actin reference gene) mRNA were quantified by real-time RT-PCR SYBR green method on ABI 7500 fast real-time PCR system. The following primers were used to amplify GLO1, forward 5′-[…]-3′ (SEQ ID NO: 5) and reverse 5′-[…]-3′ (SEQ ID NO: 6). The reference gene ACTB was amplified with primers 5′-[…]-3′ SEQ ID NO: 7)(forward) and 5′-[…]-3′ (SEQ ID NO: 8)(reverse).

For data set [2], the system named is BJ fibroblasts. The settings on record: scavenging of MG; reference 28; cited from earlier work.
Data set [3] concerns Glo1. The conditions noted are these: 2 μM SFN, over 16 h, BJ fibroblasts. As for the experimental part: as §1
For data set [4], the system named is HepG2 cells. The settings on record: 2 μM SFN. The method, then: (§2) Other Methods. Activity of Glo1 was determined by measuring the initial rate of isomerisation of the hemithioacetal formed from methylglyoxal and GSH to S-D-lactoylglutathione followed spectrophotometrically at 240 nm.^43 The concentration of MG in cells and culture medium was determined by stable isotopic dilution analysis liquid chromatography with tandem mass spectrometric detection.^4 ROS formation was assessed with dichlorodihydrofluorescein diacetate (H2DCFDA), monitoring the generation of dichlorofluorescein (DCF) fluorescence. HepG2 cells and BJ fibroblasts were incubated with H2DCFDA for 30 min, washed in PBS and DCF fluorescence quantified by flow cytometry.^44

The test system of a further data set is methylglyoxal. The conditions noted are these: 24 h post-treatment. As for the experimental part:
as §2

The subject of data set [5] is BJ fibroblasts. From the text:
Normal ageing may be modelled in human cells in vitro by cell senescence.

Data set [6] has as its system BJ fibroblasts. The settings on record: 2 μM SFN, after 48 h.
The subject of the next data set is HMEC-1 endothelial cells. The settings on record: collagen conditioned with medium from BJ cells incubated with 2 μM SFN for 24 h.
The next data set has as its system GLO1 promoter (ARE1). The conditions noted are these: ARE1 alone, HepG2 cells, 4 μM SFN 24 h.
For data set [7], the system named is BJ fibroblasts. Kind of data set: cells. The conditions noted are these: Homo sapiens, Fibroblast, 24 h, read-out: cell viability during exposure to hydrogen peroxide.
The nature of another data set: in vitro. The settings on record: human, BJ fibroblasts.
Data set [8] relates to HepG2 cells. The experiment in a line: Growth inhibition of HepG2 cells by MG. The settings on record: Homo sapiens, n=8, read-out: median growth inhibitory concentration. The class given is cell-based.
Data set [9] concerns HepG2 cells. The experiment in a line: Frameshift mutation-dependent GFP reporter in HepG2 cells. Type of data set: cell-based, human. The conditions noted are these: 400 μM MG. As for the experimental part: The pEGFP-CA/T12 vector is a reporter for efficiency of transfection while pEGFP-CA13 vector is a reporter of frameshift mutation induced by MG.^30 HepG2 cells (2×10^5 cells/well) were cultured in 12-well plates for 24 h, the MEM medium removed, the cells washed with serum free medium and replaced with DNA/lipofectamine complexes in serum free medium—transfection medium (Lipofectamine 2000 reagent, 2 μl; (1.8 μg pEGFP-CA13 or pEGFP-CA/T12; 2.0 ml serum free medium)—and incubated for 5 h at 37° C. The transfection medium was removed and replaced with complete MEM medium supplemented with 10% FCS and 2 mM glutamine) and incubated for 48 h. Transfection efficiency was assessed quantitatively by flow cytometry. […] Thereafter, cells were washed with phosphate-buffered saline (PBS) and analysed for GFP expression by flow cytometry.

Method for GLO1 promoter (ARE1): Transfection and Luciferase Assay of Custom Vectors For luciferase assays, 2×10^5 HepG2 cells per well were plated into 24-well plates and cultured overnight. The cells were transfected with 0.5 μg reporter vector and 10 ng pRL-TK plasmid using Lipofectamine 2000 according to manufacture's protocol. The empty pGL3-basic vector was used as control. After 24 h, 4 μM SFN was added to the cells and vehicle (DMSO) added to control. After 24 h, the cells were washed with PBS and luciferase activity assay performed immediately or samples stored at −80° C. until analysis. For the reporter assay, 100 μl Cell Culture Lysis Reagent (CCLR, Promega) was added to cell extracts and shaken gently for 30 min. The activity mixture was centrifuged (12,000 g, 5 min, 4° C.) and an aliquot (20 μl) of supernatant used in the reporter assay. The luciferase activity was determined using a Dual Luciferase Reporter Assay System (Promega). The relative luciferase activities were normalized by co-transfection of pRL-TK vector.
Method for HMEC-1 endothelial cells: The culture medium was then removed, incubated with human type IV collagen for 24 h and human microvascular endothelial HMEC-1 cell attachment studied as described^13a. […] The medium was then removed and added to wells of a 96-well plate (96-well; Costar; Corning) that had be prior coated type IV collagen. For the coating, 100-□l of 100 µg/ml of type IV collagen (human placental, type IV, pepsin extracted) was added to each well and incubated for 24 h at 37° C. Wells were then washed with phosphate buffered saline. Collagen coated wells were incubated with medium from BK cell cultures for 24 h at 37° C. and then washed with phosphate buffered saline. HMEC-1 endothelial cells (2.5×10^4 cells/well) were plated on to the collagen substrates and incubated for 1 h at 37° C. Non-adherent cells were removed and adherent cells were quantified by staining with 3-(4,5-dimethylthiazole-2-yl)-2,5-diphenyltetrazolium bromide, lysed with dimethylsulfoxide and the blue formazan product detected, by absorbance at 560 nm (Paul, R G, Bailey, A J: The effect of advanced glycation end-product formation upon cell-matrix interactions. Int J Biochem Cell Biol 31: 653-660, 2004).

`OCc1c[nH]c2ccccc12` [indole-3-carbinol]: in the data set on Glo1 [1], the “induction of Glo1 expression” value is “not potent inducers”.
`N=C(N)NN` [aminoguanidine]: in the data set on BJ fibroblasts [2], the “effect on cytotoxicity induced by exogenous hydrogen peroxide in vitro” value is “protective”.
For the molecule `C=CCSSCC=C` [diallyldisulphide], the “induction of Glo1 expression” value in the data set with Glo1 [1] is given as “not potent inducers”.
Turning to `C[S@@+]([O-])CCCCN=C=S` [SFN, R-Sulforaphane], the “time post-treatment at which Glo1 mRNA maximised” value with Glo1 [1] (2 μM SFN time course, BJ fibroblasts) amounted to 12 h. Further, the “Glo1 mRNA” value with Glo1 [1] (dose response, BJ fibroblasts) is given as “dose-dependent increase”. For the same molecule, in the data set with Glo1 [3], the Glo1 protein entry is on record as “increase in Glo1 protein progressively”. In the data set with HepG2 cells [4], the “endogenous ROS” value is given as “decrease”. In addition, the “ROS induced by exogenous hydrogen peroxide” value in the data set with HepG2 cells [4] (20 μM hydrogen peroxide) is “decrease”. In the data set on methylglyoxal (HepG2 culture medium), the “concentration of methylglyoxal in the cell culture” value was “marked decrease”. In the data set with methylglyoxal (BJ fibroblasts, 2 μM SFN), the “concentration of MG in cells” value is on record as “decreased concentration” and the “concentration of MG in the cell culture medium” value is recorded as “decreased concentration”. In addition, the “effect on Hayflick limit” value in the data set on BJ fibroblasts [5] (BJ cells, 1.0 μM SFN per passage from cumulative PDL 30) is listed as “allowed escape from the Hayflick limit”. Besides, the “Hayflick limit, cumulative PDL” value with BJ fibroblasts [5] (BJ cells, 2×0.5 μM SFN per passage from cumulative PDL 45, control limit PDL 49) worked out at 50.5. Moreover, the “increase in cell number per passage” value in the data set with BJ fibroblasts [5] (BJ fibroblasts, 1.0 μM SFN per passage, beyond cumulative PDL 53) is recorded as above 3 fold. In addition, the “cellular protein MG-H1 residue content” value in the data set on BJ fibroblasts [6] was “decrease”. In the data set with HMEC-1 endothelial cells, the “HMEC-1 endothelial cell adhesion to type IV collagen” value is reported as “Improved”. Further, the “Glo1 transcriptional response of luciferase reporter” value in the data set on GLO1 promoter (ARE1) is “maximal induction”. The viability at 0.5 µM with BJ fibroblasts [7] amounted to 88%.
As to `OO` [hydrogen peroxide], the viability at 200 μM in “in vitro” was 74%.
As to `CC(=O)C=O` [MG, methylglyoxal], the IC50 with HepG2 cells [8] was 1070 ± 80 µM. For the same molecule, in the data set on HepG2 cells [9], the “frameshift mutation-dependent GFP” value was “increased” and the frameshift mutations entry is reported as “increased”.
In the case of `CC(C)(C)c1cc(O)ccc1O` [tert-butylhydroquinone], in the data set with Glo1 [1], the “induction of Glo1 expression” value is recorded as “not potent inducers”.
For `C=CCN=C=S` [AITC, allyl isothiocyanate], in the data set with HepG2 cells [9] (prior 2 μM AITC), the “frameshift mutations induced by MG” value is recorded as “prevented”. Besides, the “frameshift mutation-dependent GFP induced by MG” value with HepG2 cells [9] (prior exposure to 2 μM AITC) is “prevented”.
